Activity calls are given as the source filed them. The rule behind the calls is not given here.
Columns and labels:
[1] = inducers of V. cholerae light production, dose response, BH1578, luxS and cqsA deficient, dry powder (AID 651854); conditions: V. cholerae BH1578 lux reporter, luminescence, 6 h
[2] = tested on: V. cholerae BH1578 lux reporter, luminescence, 6 h; assay: as above

Compound	light induction ([1]; at 35 µM (top of the series))	other results
C[C@H](CO)N1C[C@H](C)[C@@H](CN(C)S(=O)(=O)c2ccccc2F)Oc2cc(-c3ccncc3)ccc2S1(=O)=O	0% (inactive)	
Cc1cccc2cc3c(NC(=O)c4ccco4)nn(C)c3nc12		AC40 [2]: < 0.135 µM
CO[C@@H]1CN(C)C(=O)c2cc(NC(=O)C3CC3)ccc2OC[C@H](C)N(C(=O)NC(C)C)C[C@H]1C	1.05% (inactive)	
C[C@H](CO)N1C[C@H](C)[C@@H](CN(C)S(=O)(=O)c2ccccc2)Oc2c(NC(=O)Nc3ccc4c(c3)OCO4)cccc2C1=O		AC40 [2]: > 16 µM (inactive)
C[C@H](NC(=O)C[C@@H]1CC[C@H]2[C@H](COc3ccc(NS(=O)(=O)c4ccc(Cl)cc4)cc3C(=O)N2C)O1)c1ccccc1	0.158% (inactive)	
COCC(=O)N[C@@H]1C=C[C@H](CC(=O)N2CCCCC2)O[C@@H]1CO	0.262% (inactive)	
COc1ccc(-c2ccc([C@@H]3[C@H](C#N)N(C(=O)NC4CCCCC4)[C@H]3CO)cc2)cc1	-0.497% (inactive)	
CCC(=O)Nc1nn(C)c2nc3cc(C)ccc3cc12	-0.824% (inactive)	
COc1ccc(-c2ccc([C@H]3[C@@H](C#N)N(C(=O)NC4CCCCC4)[C@H]3CO)cc2)cc1		AC40 [2]: > 35 µM (inactive)
Cc1ccc2cc3c(NC(=O)C4CCCCC4)nn(C)c3nc2c1		AC40 [2]: < 0.135 µM
O=[N+]([O-])c1ccc(N2CCOCC2)c2c1no[n+]2[O-]	0.322% (inactive)	
CCn1nc(NC(=O)c2ccco2)c2cc3ccccc3nc21		AC40 [2]: 5.43 µM
CO[C@@H]1CC[C@@H]2CCOc3ccc(C#N)cc3C(=O)N(C)C[C@H](C)C(=O)N(C)C[C@H]1O2	0.497% (inactive)	
O=C(NC1CCCCC1)C(=O)c1c[nH]c2ccccc12		AC40 [2]: > 35 µM (inactive)
CC(C)NC(=O)Nc1ccc2c(c1)C(=O)N([C@H](C)CO)C[C@H](C)[C@@H](CN(C)Cc1ccncc1)OCCCC[C@@H](C)O2		light induction ([1]; at 30 µM (top of the series)): 3.45% (inactive)
O=C(O)C[C@@H]1CC[C@H](NC(=O)c2ccncc2)[C@@H](CO)O1	0.322% (inactive)	
O=C(N[C@@H]1C=C[C@H](CC(=O)N2CCCCC2)O[C@H]1CO)c1ccc2c(c1)OCO2	0% (inactive)	
CO[C@H]1CN(C)C(=O)c2cc(NS(=O)(=O)c3c(C)noc3C)ccc2OC[C@H](C)NC[C@@H]1C	0% (inactive)	
C[C@H]1CCCCO[C@H](CN(C)C(=O)c2ccccc2)[C@@H](C)CN([C@@H](C)CO)C(=O)c2cc(NC(=O)c3ccccc3)ccc2O1	-0.733% (inactive)	
Cn1c(C(=O)NC2CCCCC2)cc2c(=O)n(C)c3ccccc3c21		AC40 [2]: > 35 µM (inactive)
CCn1nc(NC(=O)c2ccco2)c2cc3ccc(C)cc3nc21		AC40 [2]: > 35 µM (inactive)
CO[C@@H]1CC[C@H]2CCOc3ccc(C#N)cc3C(=O)N(C)[C@H](C)C(=O)N(C)C[C@@H]1O2	0.313% (inactive)	
COc1ccc(CNC(=O)N(C)C[C@@H]2OCc3ccccc3-c3c(n(C)c4ccccc34)C(=O)N([C@@H](C)CO)C[C@H]2C)cc1	1.27% (inactive)	
O=C(C[C@@H]1CC[C@@H]2[C@H](COC[C@H](O)CN2Cc2ccc(C(F)(F)F)cc2)O1)N1CCc2ccccc2C1	0.313% (inactive)	
Cc1ccc2cc3c(NC(=O)c4ccccc4)nn(C)c3nc2c1	0.503% (inactive)	
C[C@H]1CN([C@@H](C)CO)C(=O)Cc2cc(NS(C)(=O)=O)ccc2O[C@H]1CN(C)Cc1ccc(-c2ccccc2)cc1	-0.148% (inactive)	

Compound	light induction ([1]; at 35 µM (top of the series))	other results
COc1ccc(C#Cc2ccc3c(c2)O[C@H](CN(C)C(=O)CN2CCOCC2)[C@@H](C)CN([C@@H](C)CO)S3(=O)=O)cc1	0% (inactive)	
CCCN(C)C[C@@H]1Oc2cc(C#Cc3cccc(OC)c3)ccc2S(=O)(=O)N([C@@H](C)CO)C[C@@H]1C	-0.148% (inactive)	
Cc1noc(C)c1NC(=O)N(C)C[C@H]1Oc2ccc(NC(=O)CCC(F)(F)F)cc2C(=O)N([C@H](C)CO)C[C@H]1C	0% (inactive)	
CCCn1nnnc1NCc1ccc(N2CCCC2)cc1		AC40 [2]: < 0.135 µM
CO[C@H]1CN(C)C(=O)c2cccc(C#N)c2OCC[C@@H]2CC[C@@H](OC)[C@@H](CN(C)C(=O)[C@H]1C)O2	5.31% (inactive)	
CC=Cc1ccc2n(c1=O)C[C@@H]1[C@@H](CO)[C@H](C(=O)NCC)N(Cc3ccccc3Cl)[C@H]21 (mixture of isomers)	0.694% (inactive)	
Cc1ccc2cc3c(NC(=O)c4ccco4)nn(CC(C)C)c3nc2c1	2.93% (inactive)	
Cc1ccc2cc3c(NC(=O)c4ccccn4)nn(C)c3nc2c1	-0.663% (inactive)	
CC(C)c1cccc(NC(=O)C[C@H]2CC[C@H]3[C@@H](COc4ccc(NC(=O)c5ccc(C#N)cc5)cc4C(=O)N3C)O2)c1	0.322% (inactive)	
CCCC#Cc1cnc2c(c1)C(=O)N([C@H](C)CO)C[C@H](C)[C@H](CN(C)C(=O)CCN1CCCCC1)O2	-0.148% (inactive)	
C[C@@H]1CN([C@@H](C)CO)S(=O)(=O)c2ccc(-c3ccncc3)cc2O[C@@H]1CN(C)S(=O)(=O)c1ccccc1F	0.546% (inactive)	
COc1ccc(C#Cc2cnc3c(c2)C(=O)N([C@@H](C)CO)C[C@H](C)[C@H](CN(C)C(=O)CC2CC2)O3)cc1	0% (inactive)	
CCn1nnnc1NCc1ccc(N2CCCC2)cc1		AC40 [2]: < 0.135 µM
CCOC(=O)c1cc2c(c(-c3cccc(Br)c3)n1)[C@@H](CCO)N(C(=O)NC(C)C)C2	0.322% (inactive)	
C[C@H](CO)N1C[C@H](C)[C@H](CN(C)C(=O)Cc2ccncc2)Oc2cc(C3=CCCCC3)ccc2S1(=O)=O	0.158% (inactive)	
Cc1cc(C)c2c(NC(=O)c3ccco3)nn(C)c2n1		AC40 [2]: > 35 µM (inactive)
Cn1nc(NC(=O)c2ccco2)c2c(F)cccc21	-0.824% (inactive)	
C[C@H]1CN([C@@H](C)CO)C(=O)c2cc(NC(=O)CCC(F)(F)F)ccc2O[C@H]1CN(C)Cc1ccc(Cl)c(Cl)c1	1.05% (inactive)	
Cc1ccccc1-c1ccc2c(c1)O[C@H](CN(C)Cc1ccc(C(=O)O)cc1)[C@@H](C)CN([C@H](C)CO)S2(=O)=O	-0.148% (inactive)	
CN1C(=O)c2cc(NS(C)(=O)=O)ccc2OC[C@@H]2O[C@H](CC(=O)NCc3ccc(-c4ccccc4)cc3)CC[C@@H]21	0.313% (inactive)	
CC(C)COC(=O)CNc1n[nH]c(=S)[nH]c1=O		AC40 [2]: > 35 µM (inactive)
CCn1nnc(NCc2ccc(N3CCCC3)cc2)n1	10.7% (inactive)	
Cc1noc(C)c1NC(=O)N(C)C[C@@H]1Oc2ccc(NC(=O)CCC(F)(F)F)cc2C(=O)N([C@@H](C)CO)C[C@@H]1C	0.322% (inactive)	
O=[N+]([O-])c1ccc(N(CCO)CCO)c2c1no[n+]2[O-]	9.14% (inactive)	
C[C@H](CO)N1C[C@H](C)[C@@H](CN(C)C(=O)NC2CCCCC2)OCc2ccccc2-c2c(n(C)c3ccccc23)C1=O	0% (inactive)	

Source: PubChem BioAssay AID651854 (Broad Institute, 2012)
